Patent US20250197372A1 (priority 2020, published 2025)

target: T1, recombinant alpha-glucosidase I (human full-length glucosidase I, Glu 1) (Homo sapiens, UniProt Q13724); assay: Alpha-glucosidase I assay (Amplex Red glucose detection, synthetic trisaccharide substrate); assay type: biochemical; details: not given
T1 construct: 6-His (C); made in house; host or cells: HEK-293T cells transduced with BacMam virus (virus raised in Sf9)
T1 sequence (Q13724 1-837): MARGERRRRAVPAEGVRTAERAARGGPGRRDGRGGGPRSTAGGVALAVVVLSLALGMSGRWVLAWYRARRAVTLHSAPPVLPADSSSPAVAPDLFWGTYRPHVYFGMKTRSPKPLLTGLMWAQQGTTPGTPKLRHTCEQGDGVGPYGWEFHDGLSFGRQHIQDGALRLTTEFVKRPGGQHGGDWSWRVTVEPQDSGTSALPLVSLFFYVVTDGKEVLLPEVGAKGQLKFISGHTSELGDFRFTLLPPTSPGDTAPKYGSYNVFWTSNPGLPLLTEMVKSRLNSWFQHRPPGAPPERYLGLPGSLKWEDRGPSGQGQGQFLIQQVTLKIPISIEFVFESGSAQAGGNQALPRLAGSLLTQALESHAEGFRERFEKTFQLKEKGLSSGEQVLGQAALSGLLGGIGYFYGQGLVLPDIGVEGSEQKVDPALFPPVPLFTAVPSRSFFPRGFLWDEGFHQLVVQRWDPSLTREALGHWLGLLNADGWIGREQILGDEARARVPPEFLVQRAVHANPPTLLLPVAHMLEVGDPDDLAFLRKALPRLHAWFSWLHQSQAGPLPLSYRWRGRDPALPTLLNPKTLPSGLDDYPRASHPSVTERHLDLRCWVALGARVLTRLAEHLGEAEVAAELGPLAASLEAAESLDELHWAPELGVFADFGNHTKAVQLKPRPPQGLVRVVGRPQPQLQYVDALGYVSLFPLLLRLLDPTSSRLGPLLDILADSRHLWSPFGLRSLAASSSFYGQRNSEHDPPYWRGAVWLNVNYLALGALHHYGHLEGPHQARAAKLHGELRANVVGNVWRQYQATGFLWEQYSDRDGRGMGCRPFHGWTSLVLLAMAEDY
Procedure, shortened: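 Compound dilution series incubated 60 min at 37° C with recombinant His-tagged human glucosidase I ([…]), after which trisaccharide substrate analog was added for 90 min at 37° C. Reaction quenched with 1.5M Tris pH 8; D-glucose detected by Amplex Red fluorescence, 560/590 nm. 4-PL curve fit of percent inhibition gave IC50.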

| Compound | IC50 [nM] |
| --- | --- |
| OC[C@@H]1[C@@H](O)[C@H](O)[C@@H](O)CN1CCc1ccc(CCNc2cc(Cl)cc(-c3cccnn3)c2)cc1 [Compound 1163, (2R,3R,4R,5S)-1-{2-[4-(2-{[3-chloro-5-(pyridazin-3-yl)phenyl]amino}ethyl)phenyl]ethyl}-2-(hydroxymethyl)piperidine-3,4,5-triol] | 211 |
| [N-]=[N+]=Nc1ccc(NCCc2cncc(CCN3C[C@H](O)[C@@H](O)[C@H](O)[C@H]3CO)n2)c([N+](=O)[O-])c1 [Compound 1187, (2R,3R,4R,5S)-1-[2-(6-{2-[(4-azido-2-nitrophenyl)amino]ethyl}pyrazin-2-yl)ethyl]-2-(hydroxymethyl)piperidine-3,4,5-triol] | 94 |

same assay, conditions: Glucosidase 1; read-out: Glu 1 IC50

| Compound | IC50 [nM] |
| --- | --- |
| CC(C)(C)c1cc(NCCCCCCN2C[C@H](O)[C@@H](O)[C@H](O)[C@H]2CO)cc(-c2ncccn2)c1 [Compound 1151, (2R,3R,4R,5S)-1-(6-{[3-tert-butyl-5-(pyrimidin-2-yl)phenyl]amino}hexyl)-2-(hydroxymethyl)piperidine-3,4,5-triol] | 99 |
| COc1cc(NCCc2ccc(CCN3C[C@H](O)[C@@H](O)[C@H](O)[C@H]3CO)cc2)cc(-c2ccco2)c1 [Compound 1153, (2R,3R,4R,5S)-1-{2-[4-(2-{[3-(furan-2-yl)-5-methoxy-phenyl]amino}ethyl)phenyl]ethyl}-2-(hydroxymethyl)piperidine-3,4,5-triol] | 1360 |
| COc1cc(NCCc2ccc(CCN3C[C@H](O)[C@@H](O)[C@H](O)[C@H]3CO)cc2)cc(C2=CCOCC2)c1 [Compound 1154, (2R,3R,4R,5S)-1-{2-[4-(2-{[3-(3,6-dihydro-2H-pyran-4-yl)-5-methoxyphenyl]amino}ethyl)phenyl]ethyl}-2-(hydroxymethyl)piperidine-3,4,5-triol] | 919 |
| COc1cc(NCCc2ccc(CCN3C[C@H](O)[C@@H](O)[C@H](O)[C@H]3CO)cc2)cc(C2=COCCO2)c1 [Compound 1155, (2R,3R,4R,5S)-1-{2-[4-(2-{[3-(5,6-dihydro-1,4-dioxin-2-yl)-5-methoxyphenyl]amino}ethyl)phenyl]ethyl}-2-(hydroxymethyl)piperidine-3,4,5-triol] | 1250 |
| COc1cc(NCCc2ccc(CCN3C[C@H](O)[C@@H](O)[C@H](O)[C@H]3CO)cc2)cc(-c2ncccn2)c1 [Compound 1156, (2R,3R,4R,5S)-2-(hydroxymethyl)-1-{2-[4-(2-{[3-methoxy-5-(pyrimidin-2-yl)phenyl]amino}ethyl)phenyl]ethyl}piperidine-3,4,5-triol] | 1270 |
| COc1cc(NCCc2ccc(CCN3C[C@H](O)[C@@H](O)[C@H](O)[C@H]3CO)cc2)cc(-c2cccnn2)c1 [Compound 1157, (2R,3R,4R,5S)-2-(hydroxymethyl)-1-{2-[4-(2-{[3-methoxy-5-(pyridazin-3-yl)phenyl]amino}ethyl)phenyl]ethyl}piperidine-3,4,5-triol] | 336 |
| OC[C@@H]1[C@@H](O)[C@H](O)[C@@H](O)CN1CCc1ccc(CCNc2cc(Cl)cc(-c3ccco3)c2)cc1 [Compound 1159, (2R,3R,4R,5S)-1-{2-[4-(2-{[3-chloro-5-(furan-2-yl)phenyl]amino}ethyl)phenyl]ethyl}-2-(hydroxymethyl)piperidine-3,4,5-triol] | 183 |
| OC[C@@H]1[C@@H](O)[C@H](O)[C@@H](O)CN1CCc1ccc(CCNc2cc(Cl)cc(C3=CCOCC3)c2)cc1 [Compound 1160, (2R,3R,4R,5S)-1-{2-[4-(2-{[3-chloro-5-(3,6-dihydro-2H-pyran-4-yl)phenyl]amino}ethyl)phenyl]ethyl}-2-(hydroxymethyl)piperidine-3,4,5-triol] | 1570 |
| OC[C@@H]1[C@@H](O)[C@H](O)[C@@H](O)CN1CCc1ccc(CCNc2cc(Cl)cc(C3=COCCO3)c2)cc1 [Compound 1161, (2R,3R,4R,5S)-1-{2-[4-(2-{[3-chloro-5-(5,6-dihydro-1,4-dioxin-2-yl)phenyl]amino}ethyl)phenyl]ethyl}-2-(hydroxymethyl)piperidine-3,4,5-triol] | 729 |
| OC[C@@H]1[C@@H](O)[C@H](O)[C@@H](O)CN1CCc1ccc(CCNc2cc(Cl)cc(-c3ncccn3)c2)cc1 [Compound 1162, (2R,3R,4R,5S)-1-{2-[4-(2-{[3-chloro-5-(pyrimidin-2-yl)phenyl]amino}ethyl)phenyl]ethyl}-2-(hydroxymethyl)piperidine-3,4,5-triol] | 508 |
| [N-]=[N+]=Nc1ccc(NCc2ccc(-c3ccc(CN4C[C@H](O)[C@@H](O)[C@H](O)[C@H]4CO)cc3)cc2)c([N+](=O)[O-])c1 [Compound 1166, (2R,3R,4R,5S)-1-[(4′-{[(4-azido-2-nitrophenyl)amino]methyl}-[1,1′-biphenyl]-4-yl)methyl]-2-(hydroxymethyl)piperidine-3,4,5-triol] | 184 |
| [N-]=[N+]=Nc1ccc(NCc2cccc(CN3C[C@H](O)[C@@H](O)[C@H](O)[C@H]3CO)c2)c([N+](=O)[O-])c1 [Compound 1169, (2R,3R,4R,5S)-1-[(3-{[(4-azido-2-nitrophenyl)amino]methyl}phenyl)methyl]-2-(hydroxymethyl)piperidine-3,4,5-triol] | 68 |
| [N-]=[N+]=Nc1ccc(NCc2ccc(CN3C[C@H](O)[C@@H](O)[C@H](O)[C@H]3CO)cc2)c([N+](=O)[O-])c1 [Compound 1170, (2R,3R,4R,5S)-1-[(4-{[(4-azido-2-nitrophenyl)amino]methyl}phenyl)methyl]-2-(hydroxymethyl)piperidine-3,4,5-triol] | 4 |
| [N-]=[N+]=Nc1ccc(NCCc2cc(CCN3C[C@H](O)[C@@H](O)[C@H](O)[C@H]3CO)ccc2C2CCCCC2)c([N+](=O)[O-])c1 [Compound 1171, (2R,3R,4R,5S)-1-[2-(3-{2-[(4-azido-2-nitrophenyl)amino]ethyl}-4-cyclohexylphenyl)ethyl]-2-(hydroxymethyl)piperidine-3,4,5-triol] | 301 |
| [N-]=[N+]=Nc1ccc(NCCc2ccc(CCN3C[C@H](O)[C@@H](O)[C@H](O)[C@H]3CO)c3c2OCCO3)c([N+](=O)[O-])c1 [Compound 1173, (2R,3R,4R,5S)-1-[2-(8-{2-[(4-azido-2-nitrophenyl)amino]ethyl}-2,3-dihydro-1,4-benzodioxin-5-yl)ethyl]-2-(hydroxymethyl)piperidine-3,4,5-triol] | 157 |
| [N-]=[N+]=Nc1ccc(NCc2cc(CCN3C[C@H](O)[C@@H](O)[C@H](O)[C@H]3CO)cs2)c([N+](=O)[O-])c1 [Compound 1174, (2R,3R,4R,5S)-1-[2-(5-{[(4-azido-2-nitrophenyl)amino]methyl}thiophen-3-yl)ethyl]-2-(hydroxymethyl)piperidine-3,4,5-triol] | 531 |
| [N-]=[N+]=Nc1ccc(NCCn2cc(CCN3C[C@H](O)[C@@H](O)[C@H](O)[C@H]3CO)c3ccccc32)c([N+](=O)[O-])c1 [Compound 1177, (2R,3R,4R,5S)-1-[2-(1-{2-[(4-azido-2-nitrophenyl)amino]ethyl}-1H-indol-3-yl)ethyl]-2-(hydroxymethyl)piperidine-3,4,5-triol] | 374 |
| [N-]=[N+]=Nc1ccc(NCCc2cc(CCN3C[C@H](O)[C@@H](O)[C@H](O)[C@H]3CO)cs2)c([N+](=O)[O-])c1 [Compound 1179, (2R,3R,4R,5S)-1-[2-(5-{2-[(4-azido-2-nitrophenyl)amino]ethyl}thiophen-3-yl)ethyl]-2-(hydroxymethyl)piperidine-3,4,5-triol] | < 1 |
| COc1cc(CN2CCCO2)cc(NCCCCCCN2C[C@H](O)[C@@H](O)[C@H](O)[C@H]2CO)c1 [Compound 1182, (2R,3R,4R,5S)-2-(hydroxymethyl)-1-[6-({3-methoxy-5-[(1,2-oxazolidin-2-yl)methyl]phenyl}amino)hexyl]piperidine-3,4,5-triol] | 47 |
| OC[C@@H]1[C@@H](O)[C@H](O)[C@@H](O)CN1CCCCCCNc1cc(Cl)cc(CN2CCCO2)c1 [Compound 1183, (2R,3R,4R,5S)-1-[6-({3-chloro-5-[(1,2-oxazolidin-2-yl)methyl]phenyl}amino)hexyl]-2-(hydroxymethyl)piperidine-3,4,5-triol] | 154 |
| O=Cc1cc(-c2ncccn2)ccc1NCCCCCCN1C[C@H](O)[C@@H](O)[C@H](O)[C@H]1CO [Compound 1184, 5-(pyrimidin-2-yl)-2-({6-[(2R,3R,4R,5S)-3,4,5-trihydroxy-2-(hydroxymethyl)piperidin-1-yl]hexyl}amino)benzaldehyde] | 84 |
| [N-]=[N+]=Nc1ccc(NCCc2ccc(CCN3C[C@H](O)[C@@H](O)[C@H](O)[C@H]3CO)s2)c([N+](=O)[O-])c1 [Compound 1186, (2R,3R,4R,5S)-1-[2-(5-{2-[(4-azido-2-nitrophenyl)amino]ethyl}hiophen-2-yl)ethyl]-2-(hydroxymethyl)piperidine-3,4,5-triol] | 3 |
